Measurements published in ChEMBL document CHEMBL4373665, “Discovery of new non-acidic lonazolac analogues with COX-2 selectivity as potent anti-inflammatory agents” (Medchemcomm, 2019).

Assays:
[1] = Ulcerogenic activity in rat assessed as effect on mucosal blood vessel at 50 mg/kg by hematoxylin and eosin staining based assay; type: toxicity, organism-based; conditions: in vivo
[2] = target: Prostaglandin G/H synthase 1 (Homo sapiens, UniProt P23219); test: Inhibition of human recombinant COX1 assessed as decrease in prostaglandin production using arachidonic acid as substrate pretreated for 15 mins followed by substrate addition and measured after 2 mins by enzyme immunoassay; type: single protein
Prostaglandin G/H synthase 1, sequence (P23219 whole entry): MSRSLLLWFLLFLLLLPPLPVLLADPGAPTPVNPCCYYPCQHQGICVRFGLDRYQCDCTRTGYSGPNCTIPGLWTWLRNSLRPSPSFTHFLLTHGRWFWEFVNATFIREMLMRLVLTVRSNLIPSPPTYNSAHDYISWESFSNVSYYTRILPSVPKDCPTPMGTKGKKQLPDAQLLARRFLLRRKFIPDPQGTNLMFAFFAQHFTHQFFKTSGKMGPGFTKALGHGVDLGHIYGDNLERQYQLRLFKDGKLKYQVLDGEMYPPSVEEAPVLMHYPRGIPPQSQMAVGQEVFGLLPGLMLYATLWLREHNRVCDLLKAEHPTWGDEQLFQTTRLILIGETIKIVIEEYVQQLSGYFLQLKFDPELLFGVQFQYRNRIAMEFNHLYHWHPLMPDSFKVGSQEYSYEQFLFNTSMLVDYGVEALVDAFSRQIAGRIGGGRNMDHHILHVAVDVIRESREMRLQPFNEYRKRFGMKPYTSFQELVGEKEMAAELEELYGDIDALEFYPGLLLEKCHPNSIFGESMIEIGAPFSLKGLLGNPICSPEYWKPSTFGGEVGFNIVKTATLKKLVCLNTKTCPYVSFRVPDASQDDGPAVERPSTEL

[3] = target: T1, Prostaglandin G/H synthase 2 (Homo sapiens, UniProt P35354); test: Inhibition of human recombinant COX2 assessed as decrease in prostaglandin production using arachidonic acid as substrate pretreated for 15 mins followed by substrate addition and measured after 2 mins by enzyme immunoassay
T1 sequence (P35354 whole entry): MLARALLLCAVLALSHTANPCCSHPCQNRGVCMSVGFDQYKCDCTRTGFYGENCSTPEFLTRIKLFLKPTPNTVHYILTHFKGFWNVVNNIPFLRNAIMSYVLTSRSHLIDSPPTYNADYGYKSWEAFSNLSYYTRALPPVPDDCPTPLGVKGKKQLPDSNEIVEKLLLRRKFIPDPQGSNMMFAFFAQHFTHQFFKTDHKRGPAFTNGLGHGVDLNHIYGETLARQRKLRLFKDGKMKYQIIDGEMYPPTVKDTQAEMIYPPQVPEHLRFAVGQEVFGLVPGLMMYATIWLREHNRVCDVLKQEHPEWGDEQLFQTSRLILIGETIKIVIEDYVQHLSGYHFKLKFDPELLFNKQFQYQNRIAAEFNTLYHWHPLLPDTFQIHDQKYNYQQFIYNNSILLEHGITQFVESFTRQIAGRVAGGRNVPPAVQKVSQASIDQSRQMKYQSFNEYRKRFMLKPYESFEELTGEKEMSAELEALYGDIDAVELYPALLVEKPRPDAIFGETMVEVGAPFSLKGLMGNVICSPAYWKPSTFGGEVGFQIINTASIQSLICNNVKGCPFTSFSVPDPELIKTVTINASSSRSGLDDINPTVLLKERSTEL

Homo sapiens = organism: Homo sapiens; test: Selectivity index, ratio of IC50 for human recombinant COX1 to IC50 for human recombinant COX2 using arachidonic acid as substrate
Rattus norvegicus [4] = test: Anti-inflammatory activity in albino rat model of carrageenan-induced paw edema assessed as inhibition of carrageenan-induced paw edema at 100 mg/kg, po administered as single dose prior to carrageenan challenge measured after 1 hr relative to control; type: functional
Rattus norvegicus [5] = test: Anti-inflammatory activity in albino rat model of carrageenan-induced paw edema assessed as inhibition of carrageenan-induced paw edema at 100 mg/kg, po administered as single dose prior to carrageenan challenge measured after 3 hrs relative to control; type: functional
Rattus norvegicus [6] = test: Anti-inflammatory activity in albino rat model of carrageenan-induced paw edema assessed as inhibition of carrageenan-induced paw edema at 100 mg/kg, po administered as single dose prior to carrageenan challenge measured after 4 hrs relative to control; type: functional
Rattus norvegicus [7] = test: Anti-inflammatory activity in albino rat model of carrageenan-induced paw edema assessed as inhibition of carrageenan-induced paw edema at 100 mg/kg, po administered as single dose prior to carrageenan challenge measured after 8 hrs relative to control; type: functional
Rattus norvegicus [8] = test: Anti-inflammatory activity in albino rat model of carrageenan-induced paw edema assessed as inhibition of carrageenan-induced paw edema at 100 mg/kg, po administered as single dose prior to carrageenan challenge measured after 12 hrs relative to control; type: functional
[9] = Ulcerogenic activity in rat assessed as ulcer index at 50 mg/kg, sc qd for 4 days post 18 hrs fasting measured after 4 days; type: toxicity, organism-based; conditions: in vivo, 96 h
[10] = Ulcerogenic activity in rat assessed as incidence of gastric ulceration at 50 mg/kg, sc qd for 4 days post 18 hrs fasting measured after 4 days relative to control; type: toxicity, organism-based; conditions: in vivo, 96 h
[11] = Ulcerogenic activity in rat assessed as average number of ulcers formed at 50 mg/kg, sc qd for 4 days post 18 hrs fasting measured after 4 days; type: toxicity, organism-based; conditions: in vivo, 96 h
[12] = Ulcerogenic activity in rat assessed as average severity of ulcers formed at 50 mg/kg, sc qd for 4 days post 18 hrs fasting measured after 4 days; type: toxicity, organism-based; conditions: in vivo, 96 h
[13] = Ulcerogenic activity in rat assessed as effect on gastric mucosa at 50 mg/kg by hematoxylin and eosin staining based assay; type: toxicity, organism-based; conditions: in vivo
[14] = Ulcerogenic activity in rat assessed as effect on parietal cells at 50 mg/kg by hematoxylin and eosin staining based assay; type: toxicity, organism-based; conditions: in vivo
[15] = Ulcerogenic activity in rat assessed as effect on gastric submucosa at 50 mg/kg by hematoxylin and eosin staining based assay; type: toxicity, organism-based; conditions: in vivo
[16] = Hepatotoxicity in rat assessed as effect on central veins in liver at 50 mg/kg by hematoxylin and eosin staining based assay; type: toxicity, organism-based; conditions: in vivo
[17] = Hepatotoxicity in rat assessed as effect on portal veins at 50 mg/kg by hematoxylin and eosin staining based assay; type: toxicity, organism-based; conditions: in vivo
[18] = Hepatotoxicity in rat assessed as effect on bile ducts at 50 mg/kg by hematoxylin and eosin staining based assay; type: toxicity, organism-based; conditions: in vivo
[19] = Hepatotoxicity in rat assessed as effect on hepatocytes in periportal area at 50 mg/kg by hematoxylin and eosin staining based assay; type: toxicity, organism-based; conditions: in vivo
[20] = Nephrotoxicity in rat assessed as effect on glomeruli at 50 mg/kg surrounded by Bowmann's capsule by hematoxylin and eosin staining based assay; type: toxicity, organism-based; conditions: in vivo
[21] = Nephrotoxicity in rat assessed as effect on proximal tubule at 50 mg/kg by hematoxylin and eosin staining based assay; type: toxicity, organism-based; conditions: in vivo
[22] = Nephrotoxicity in rat assessed as effect on distal tubule at 50 mg/kg by hematoxylin and eosin staining based assay; type: toxicity, organism-based; conditions: in vivo

Structure (SMILES) | Activity [1] | inhibition in vivo at 100 mg/kg (Rattus norvegicus [4]) [%] | inhibition in vivo at 100 mg/kg (Rattus norvegicus [5]) [%] | inhibition in vivo at 100 mg/kg (Rattus norvegicus [6]) [%] | inhibition in vivo at 100 mg/kg (Rattus norvegicus [7]) [%] | inhibition in vivo at 100 mg/kg (Rattus norvegicus [8]) [%] | UI [9] | Activity [10] [%] | Activity [11] | Activity [12] | Activity [13] | Activity [14] | Activity [15] | Activity [16] | Activity [17] | Activity [18] | Activity [19] | Activity [20] | Activity [21] | Activity [22] | other results
CC(=O)n1nc(-c2ccccc2)cc1-c1cn(-c2ccccc2)nc1-c1ccc(OCc2ccccc2)cc1 | Toxic | 78.3 | 64.6 | 59.8 | 55.2 | 57.7 | 6 | 4 | 0.8 | 1.2 | Toxic | Toxic | Toxic | Toxic | Toxic | Toxic | Toxic | Toxic | Toxic | Toxic | IC50 [2]: 13000 nM; IC50 [3]: 1930 nM; Ratio IC50 (Homo sapiens): 6.74
O=C(/C=C/c1cn(-c2ccccc2)nc1-c1ccc(OCc2ccccc2)cc1)c1ccc(Cl)cc1 | Non-Toxic | 89.7 | 77.1 | 69.9 | 48.6 | 41.4 | 2.4 | 2 | 0.2 | 0.2 | Non-Toxic | Non-Toxic | Non-Toxic | Non-Toxic | Non-Toxic | Non-Toxic | Non-Toxic | Non-Toxic | Non-Toxic | Non-Toxic | IC50 [2]: 5590 nM; IC50 [3]: 600 nM; Ratio IC50 (Homo sapiens): 9.32
S=c1nc(-c2ccc(Cl)cc2)cc(-c2cn(-c3ccccc3)nc2-c2ccc(OCc3ccccc3)cc2)[nH]1 | Toxic | 42.2 | 54.4 | 41.8 | 24.7 | 15.5 | 6.4 | 4 | 1.2 | 1.2 | Toxic | Toxic | Toxic | Toxic | Toxic | Toxic | Toxic | Toxic | Toxic | Toxic | IC50 [2]: 7200 nM; IC50 [3]: 1100 nM; Ratio IC50 (Homo sapiens): 6.54
N#CC1=C(N)OC(c2ccccc2)=CC1c1cn(-c2ccccc2)nc1-c1ccc(OCc2ccccc2)cc1 (stereo unspecified) | Toxic | 69 | 59.5 | 54.5 | 42.9 | 28.2 | 5.2 | 4 | 0.8 | 0.4 | Toxic | Toxic | Toxic | Toxic | Toxic | Toxic | Toxic | Toxic | Toxic | Toxic | IC50 [2]: 4020 nM; IC50 [3]: 720 nM; Ratio IC50 (Homo sapiens): 5.58
Clc1ccc(-c2cc(-c3cn(-c4ccccc4)nc3-c3ccc(OCc4ccccc4)cc3)on2)cc1 | Toxic | 69.8 | 70.9 | 42.9 | 48.7 | 45 | 8.4 | 6 | 1.2 | 1.2 | Toxic | Toxic | Toxic | Toxic | Toxic | Toxic | Toxic | Toxic | Toxic | Toxic | IC50 [2]: 2890 nM; IC50 [3]: 1250 nM; Ratio IC50 (Homo sapiens): 2.31
Cc1ccc(-c2cc(C(F)(F)F)nn2-c2ccc(S(N)(=O)=O)cc2)cc1 [CELECOXIB] | Toxic | 56.1 | 58.5 | 48.1 | 44.9 | 34.6 | 3.2 | 2 | 0.6 | 0.6 | Toxic | Toxic | Toxic | Toxic | Toxic | Toxic | Toxic | Toxic | Toxic | Toxic | 
Nc1nc(-c2ccccc2)cc(-c2cn(-c3ccccc3)nc2-c2ccc(OCc3ccccc3)cc2)n1 | Toxic | 82 | 74.4 | 83.9 | 40.2 | 33.6 | 3.2 | 2 | 0.6 | 0.6 | Toxic | Toxic | Toxic | Toxic | Toxic | Toxic | Toxic | Toxic | Toxic | Toxic | IC50 [2]: 16500 nM; IC50 [3]: 2800 nM; Ratio IC50 (Homo sapiens): 5.89
COc1ccc2c(c1)c(CC(=O)O)c(C)n2C(=O)c1ccc(Cl)cc1 [INDOMETHACIN] | Toxic | 80.2 | 79.8 | 65.2 | 62.5 | 55.6 | 17.6 | 10 | 5 | 2.6 | Toxic | Toxic | Toxic | Toxic | Toxic | Toxic | Toxic | Toxic | Toxic | Toxic | 
O=C(/C=C/c1cn(-c2ccccc2)nc1-c1ccc(OCc2ccccc2)cc1)c1ccccc1 | Non-Toxic | 81.7 | 58.2 | 51.2 | 23.8 | 32.5 | 2.8 | 2 | 0.4 | 0.4 | Non-Toxic | Non-Toxic | Non-Toxic | Non-Toxic | Non-Toxic | Non-Toxic | Non-Toxic | Non-Toxic | Non-Toxic | Non-Toxic | IC50 [2]: 15500 nM; IC50 [3]: 1880 nM; Ratio IC50 (Homo sapiens): 8.22
